Consider three molecules from patent US5811441A, “Isoxazoline fibrinogen receptor antagonists” (The DuPont Merck Pharmaceutical Company, priority 1997, dated 1998).

Molecules are shown by their SMILES. pIC50: −log10 of the molar value. Where a name gives a salt, the structure may show the parent alone. A value given as a limit tells only on which side of the number the result lay.

This assay deals with platelet aggregation (platelet rich plasma (PRP)). The assay is described as follows: Platelet Aggregation Assay (no esterase), platelet rich plasma. It is filed as cell-based. Conditions: human platelet rich plasma (PRP), concentration inhibiting platelet aggregation by 50% relative to control. Here is the method:
Platelet Aggregation Assay:
venous blood was obtained from the arm of a healthy human donor who was drug-free and aspirin-free for at least two weeks prior to blood collection. Blood was collected into 10 mL citrated Vacutainer tubes. The blood was centrifuged for 15 minutes at 150×g at room temperature, and platelet-rich plasma (PRP) was removed. The remaining blood was centrifuged for 15 minutes at 1500×g at room temperature, and platelet-poor plasma (PPP) was removed. Samples were assayed on a aggregometer (PAP-4 Platelet Aggregation Profiler), using PPP as the blank (100% transmittance). […] of PRP was added to each micro test tube, and transmittance was set to 0%. 20 μL of various agonists (ADP, collagen, arachidonate, epinephrine, thrombin) were added to each tube, and the aggregation profiles were plotted (% transmittance versus time). The results are expressed as % inhibition of agonist-induced platelet aggregation. For the IC50 evaluation, the test compounds were added at various concentrations prior to the activation of the platelets.
Table A below sets forth the antiplatelet activity of representative compounds of the present invention. The indicated compounds were tested for their ability to inhibit platelet aggregation (using platelet rich plasma (PRP)). The IC50 value (the concentration of antagonist which inhibits platelet aggregation by 50% relative to a control lacking the antagonist) is shown. In Table A the IC50 values are expressed as: +++=IC50 of <1 μM; ++=IC50 of 1-50 μM; +=IC50 of 50-100 μM (μM=micromolar).

In general, pIC50 refers to the negative decadic logarithm of the IC50, by convention in mol/L. A higher pIC50 goes with a low IC50. In turn, `Cc1noc(C)c1S(=O)(=O)N[C@@H](CNC(=O)C[C@@H]1CC(c2ccc(C(=N)N)cc2)=NO1)C(=O)O` [N^2-(3,5-Dimethylisoxazole-4-sulfonyl)-N^3-[3-(4-amidinophenyl)isoxazolin-5(S)-ylacetyl]-(S)-2,3-diamino-propionate Trifluoroacetate Salt] had a pIC50 greater than 6.00.
Under `Cc1noc(C)c1S(=O)(=O)N[C@@H](CNC(=O)C[C@H]1CC(c2ccc(C(=N)N)cc2)=NO1)C(=O)O` [N^2-(3,5-dimethylisoxazole-4-sulfonyl)-N^3-[3-(4-amidinophenyl)isoxazolin-5(R)-ylacetyl]-(S)-2,3-diaminopropionate Trifluoroacetate Salt] stands greater than 6.00.
Regarding `Cc1noc(C)c1S(=O)(=O)N[C@@H](CNC(=O)CC1CC(c2ccc(C(=N)N)cc2)=NO1)C(=O)O` (stereo partly drawn) [N^2-(3,5-dimethylisoxazole-4-sulfonyl)-N^3-[3-(4-amidinophenyl)isoxazolin-5(R,S)-ylacetyl]-(S)-2,3-diaminopropionateTrifluoroacetate Salt], the pIC50 is greater than 6.00.
